Source: patent publication US10118947B2, “Modulation of structured polypeptide specificity” (BICYCLE THERAPEUTICS LIMITED, priority 2013, dated 2018)
pKi: −log10 of the molar value. Like-named read-outs stand apart in the source and are kept apart here. Numbered stars: 1 amine (or outer) side, 2 acyl side, 3 side chain; on linkers, the order of the positions; unused ones are H or OH. Bridge positions count the residues as written; N and C are the ends. Square brackets hold non-standard residues; d marks the D form. Peptide text beside a SMILES is read from it. Phe(4-guanidino) = N=C(N)Nc1ccc(C[C@H](N)C(=O)O)cc1; TBMB = c1c(C[*:1])cc(C[*:3])cc1C[*:2]; NMeR = CN[C@@H](CCCNC(=N)N)C(=O)O; hArg = N=C(N)NCCCC[C@H](N)C(=O)O; NMeL = CN[C@@H](CC(C)C)C(=O)O; Chg = N[C@H](C(=O)O)C1CCCCC1; Phg = N[C@H](C(=O)O)c1ccccc1; Tle = CC(C)(C)[C@H](N)C(=O)O; Aze = O=C(O)[C@@H]1CCN1

What was measured:
human plasma Kallikrein = target: T1, human plasma Kallikrein (Homo sapiens, UniProt P03952); experiment: Functional enzyme inhibition assay with fluorogenic substrate Z-PheArg-AMC, human plasma Kallikrein; type: biochemical; conditions: for F (Kivar/KiWT) / pKi: Table 25a; for F (Kivar/KiWT): fold change of Ki of variant compared to WT; for pKi: α-N-methyl amino acid scan in Loop2, human plasma kallikrein, read-out: Ki
T1 construct: purchased Stratech, UK
T1 sequence (P03952 20-638): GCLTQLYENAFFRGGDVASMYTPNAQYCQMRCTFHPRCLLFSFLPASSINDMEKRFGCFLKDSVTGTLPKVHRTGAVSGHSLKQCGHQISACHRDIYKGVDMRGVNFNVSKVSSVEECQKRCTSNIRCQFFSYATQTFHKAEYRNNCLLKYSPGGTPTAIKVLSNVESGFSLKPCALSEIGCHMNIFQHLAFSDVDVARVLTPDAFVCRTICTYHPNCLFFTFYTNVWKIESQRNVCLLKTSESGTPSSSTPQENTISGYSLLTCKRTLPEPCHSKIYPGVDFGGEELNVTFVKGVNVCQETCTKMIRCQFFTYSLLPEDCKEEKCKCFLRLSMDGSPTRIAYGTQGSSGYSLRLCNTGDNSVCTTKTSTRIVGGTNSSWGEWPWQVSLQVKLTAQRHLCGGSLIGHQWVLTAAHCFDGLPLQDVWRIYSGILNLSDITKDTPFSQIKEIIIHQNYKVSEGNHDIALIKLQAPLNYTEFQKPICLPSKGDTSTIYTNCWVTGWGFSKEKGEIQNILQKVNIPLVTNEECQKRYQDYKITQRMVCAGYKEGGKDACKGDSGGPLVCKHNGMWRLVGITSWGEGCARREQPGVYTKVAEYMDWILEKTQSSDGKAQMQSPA
Summary of the method: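 Rates of AMC release (excitation 360 nm, emission 460 nm) from 100 μM final Z-PheArg-AMC, 4% DMSO, were taken over the linear phase, typically 5 to 45 minutes. IC50 from four-parameter non-linear regression; Ki also derived.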

rat plasma Kallikrein [1] = target: T2, rat plasma Kallikrein (Rattus norvegicus, UniProt P14272); experiment: Functional enzyme inhibition assay with fluorogenic substrate Z-PheArg-AMC, rat plasma Kallikrein; type: biochemical
T2 construct: polyhistidine tag (N, cleaved yes); proTEV cleavage site (pro-peptide linker) (N, cleaved yes); made in house; host or cells: HEK-293 (suspension-adapted)
T2 sequence (P14272 391-638 limits assumed): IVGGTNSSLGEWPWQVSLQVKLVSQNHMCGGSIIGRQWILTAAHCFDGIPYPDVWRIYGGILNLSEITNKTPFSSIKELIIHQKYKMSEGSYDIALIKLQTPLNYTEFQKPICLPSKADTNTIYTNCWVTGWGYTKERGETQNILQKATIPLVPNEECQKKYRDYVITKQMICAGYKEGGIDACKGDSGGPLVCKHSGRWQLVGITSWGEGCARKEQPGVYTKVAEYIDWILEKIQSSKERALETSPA
Method: Functional enzyme assays were conducted in 10 mM Tris HCl, 150 mM NaCl, 10 mM MgCl2, 1 mM CaCl2) and 1 mg/mL BSA (all Sigma UK) pH7.4 at 25° C. in solid black 96 well plates. Briefly 26.5 pM human plasma Kallikrein (purchased from Stratech, UK) or 500 pM rat plasma Kallikrein (expressed and purified in house) were incubated in the absence or presence of increasing concentrations of test peptide for 15 minutes before addition of the fluorogenic substrate Z-PheArg-AMC (Enzo Lifesciences UK) to a final assay concentration of 100 μM in 4% DMSO. Release of AMC was measured using a Pherastar FS (BMG Labtech), excitation 360 nm, emission 460 nm. The rate of the linear phase of the reaction, typically 5 to 45 minutes, was calculated in MARS data analysis software (BMG labtech). The rate was then used to calculate the IC50 and Ki in Prism (GraphPad). A four parameter inhibition non-linear regression equation was used to calculate the IC50.
Peptides were dissolved as the TFA-salts in their powder form, and stock solutions were usually prepared in water. All solutions were centrifuged and filtered ([…] syringe filters) prior absorption measurement at 280 nm. Extinction coefficients were calculated based on the Trp/Tyr content of the peptide, and that of TMB (the TMB core, when contained in a peptide, has an ε of ˜300 M^−1cm^−1). For peptides containing non-natural amino acids with suspected chromophoric properties (i.e. NorHar, 4PhenylPro, 3Pal, 4Pal, Tic, 4GuanPhe, 4,4-BPAI, 3,3-DPA, 1NAI, 2NAI, 4BenzylPro, Ind) concentrations were determined by weighing the powder and dissolving the peptide in a defined quantity of water.

rat plasma Kallikrein [2] = target: T2, rat plasma Kallikrein; conditions: Table 1; read-out: Ki (nM) (rat kallikrein); cited from earlier work
[3] = Plasma stability / fragment profiling Method #2 (MALDI-TOF, 95% plasma), human plasma; type: in vitro ADME; conditions: Table 25a, peptide fragments observed after incubation in human plasma
Method: To obtain stability data more rapidly, peptides were also assessed in 95% plasma. Here, PBS was omitted, and a 1 mM peptide stock (in DMSO) was directly diluted into plasma (i.e. 2.5 uL stock into 47.5 uL plasma), giving a final concentration of 50 uM. 5 uL samples were taken at appropriate time points and frozen at −80 deg C. For analysis, the samples were defrosted, mixed with 15 uL of 1:1 acetonitrile:methanol, and centrifuged at 13 k for 5 min. 5 uL of the peptide-containing supernatant was aspirated and mixed with 30 mM ammonium bicarbonate in a 1:1 mixture of acetonitrile:H2O. 1 uL of this was then spotted on the MALDI plate and analysed as described above. As above, it should be noted that this is a qualitative assay serves to detect relative changes in plasma stability.
Ac-06-34-18(TMB)-NH2 Phe2 Tyr4 (referred to as wild type peptide) was subsequently subjected to human plasma, and analysed for fragments to appear over time. This was compared to the degradation profile observed in human plasma using the NMe-Arg5 derivative of 06-34-18 (FIGS. 18a and 18b). Fragmentation was determined according to Method #2.

[4] = Table 26b, loop 1 and loop 2 modified derivatives, read-out: Ki (nM) (human kallikrein)
[5] = Table 26b, loop 1 and loop 2 modified derivatives
[6] = Table 24a, residue 6 modification in the context of Ac-(06-34-18) Phe2 Tyr4, read-out: Ki (nM) Ac-(06-34-18) Phe2 Tyr4
[7] = Table 26a, loop2 stability enhanced candidates

CC(=O)N[C@H]1CSCc2cc3cc(c2)CSC[C@H](NC(=O)[C@H](CCCCNC(=N)N)NC(=O)[C@H](Cc2ccc(O)cc2)NC(=O)[C@@H]2CCN2C(=O)[C@H](Cc2ccccc2)NC(=O)[C@H](CO)NC1=O)C(=O)N[C@@H](C)CN[C@@H](Cc1c[nH]cn1)C(=O)N[C@@H](CCC(N)=O)C(=O)N[C@@H](CC(=O)O)C(=O)N[C@@H](CC(C)C)C(=O)N[C@H](C(N)=O)CSC3
Ki (human plasma Kallikrein; [4]): 0.44 nM | Ki (rat plasma Kallikrein [1]; [5]): 41 nM

CC(=O)N[C@H]1CSCc2cc3cc(c2)CSC[C@H](NC(=O)[C@H](CCCCNC(=N)N)NC(=O)[C@H](C)NC(=O)[C@@H]2CCN2C(=O)[C@H](Cc2c[nH]c4ccccc24)NC(=O)[C@H](CO)NC1=O)C(=O)N[C@@H](c1ccccc1)C(=O)N[C@@H](Cc1c[nH]cn1)C(=O)N[C@@H](CCC(N)=O)C(=O)N[C@@H](CC(=O)O)C(=O)N[C@@H](CC(C)C)C(=O)N[C@H](C(N)=O)CSC3 [Ac-(06-34-18) Aze3 HArg5 Phg6] (Ac-CSW[Aze]A[hArg]C[Phg]HQDLC-NH2; linker 1-7-13 via TBMB)
Ki (human plasma Kallikrein; [4]): 0.52 nM | Ki (rat plasma Kallikrein [1]; [5]): 57 nM

CC(=O)N[C@H]1CSCc2cc3cc(c2)CSC[C@H](NC(=O)[C@H](CCCCNC(=N)N)NC(=O)[C@H](Cc2ccc(O)cc2)NC(=O)[C@@H]2CCN2C(=O)[C@H](Cc2ccccc2)NC(=O)[C@H](CO)NC1=O)C(=O)N[C@@H](CC(C)C)C(=O)N[C@@H](Cc1c[nH]cn1)C(=O)N[C@@H](CCC(=O)O)C(=O)N[C@@H](CC(=O)O)C(=O)N[C@@H](CC(C)C)C(=O)N[C@H](C(N)=O)CSC3 [Ac-(06-34-18) Phe2 Aze3 Tyr4 HArg5 Glu8] (Ac-CSF[Aze]Y[hArg]CLHEDLC-NH2; linker 1-7-13 via TBMB)
Ki (human plasma Kallikrein; [4]): 1.65 nM | Ki (rat plasma Kallikrein [1]; [5]): 23 nM

CC(=O)N[C@H]1CSCc2cc3cc(c2)CSC[C@H](NC(=O)[C@H](CCCCNC(=N)N)NC(=O)[C@H](Cc2ccc(O)cc2)NC(=O)[C@@H]2CCN2C(=O)[C@H](Cc2ccccc2)NC(=O)[C@H](CO)NC1=O)C(=O)N[C@@H](c1ccccc1)C(=O)N[C@@H](Cc1c[nH]cn1)C(=O)N[C@@H](CCC(N)=O)C(=O)N[C@@H](CC(=O)O)C(=O)N[C@@H](CC(C)C)C(=O)N[C@H](C(N)=O)CSC3 [Ac-(06-34-18) Phe2 Aze3 Tyr4 HArg5 Phg6] (Ac-CSF[Aze]Y[hArg]C[Phg]HQDLC-NH2; linker 1-7-13 via TBMB)
Ki (human plasma Kallikrein; [4]): 0.32 nM | Ki (rat plasma Kallikrein [1]; [5]): 12 nM

CC(=O)N[C@H]1CSCc2cc3cc(c2)CSC[C@H](NC(=O)[C@H](CCCCNC(=N)N)NC(=O)[C@H](Cc2ccc(O)cc2)NC(=O)[C@@H]2CCN2C(=O)[C@H](Cc2ccccc2)NC(=O)[C@H](CO)NC1=O)C(=O)N[C@@H](CC(C)C)C(=O)N[C@@H](Cc1c[nH]cn1)C(=O)N[C@@H](CCC(N)=O)C(=O)N[C@@H](CC(=O)O)C(=O)N[C@@H](CC(C)C)C(=O)N[C@H](C(N)=O)CSC3 [Ac-(06-34-18) Phe2 Aze3 Tyr4 HomoArg5] (Ac-CSF[Aze]Y[hArg]CLHQDLC-NH2; linker 1-7-13 via TBMB)
Ki (rat plasma Kallikrein [2]): 3 nM

CC(=O)N[C@H]1CSCc2cc3cc(c2)CSC[C@H](NC(=O)[C@H](CCCNC(=N)N)NC(=O)[C@H](Cc2ccc(O)cc2)NC(=O)[C@@H]2CCN2C(=O)[C@H](Cc2ccccc2)NC(=O)[C@H](CO)NC1=O)C(=O)N[C@@H](C(C)(C)C)C(=O)N[C@@H](Cc1c[nH]cn1)C(=O)N[C@@H](CCC(N)=O)C(=O)N[C@@H](CC(=O)O)C(=O)N[C@@H](CC(C)C)C(=O)N[C@H](C(N)=O)CSC3 [Ac-(06-34-18) Phe2 Aze3 Tyr4 tBuGly6] (Ac-CSF[Aze]YRC[Tle]HQDLC-NH2; linker 1-7-13 via TBMB)
Ki (human plasma Kallikrein; [4]): 1.91 nM | Ki (rat plasma Kallikrein [1]; [5]): 193 nM

CC(=O)N[C@H]1CSCc2cc3cc(c2)CSC[C@H](NC(=O)[C@H](Cc2ccc(NC(=N)N)cc2)NC(=O)[C@H](Cc2ccc(O)cc2)NC(=O)[C@@H]2CCN2C(=O)[C@H](Cc2ccccc2)NC(=O)[C@H](CO)NC1=O)C(=O)N[C@@H](CC(C)C)C(=O)N[C@@H](Cc1c[nH]cn1)C(=O)N[C@@H](CCC(N)=O)C(=O)N[C@@H](CC(=O)O)C(=O)N[C@@H](CC(C)C)C(=O)N[C@H](C(N)=O)CSC3 [Ac-(06-34-18) Phe2 Aze3Tyr4 4GuanPhe5] (Ac-CSF[Aze]Y[Phe(4-guanidino)]CLHQDLC-NH2; linker 1-7-13 via TBMB)
Ki (rat plasma Kallikrein [2]): 1.2 nM

CC(=O)N[C@H]1CSCc2cc3cc(c2)CSC[C@H](NC(=O)[C@H](CCCNC(=N)N)N(C)C(=O)[C@H](Cc2ccc(O)cc2)NC(=O)[C@@H]2CCN2C(=O)[C@H](Cc2ccccc2)NC(=O)[C@H](CO)NC1=O)C(=O)N[C@@H](CC(C)C)C(=O)N[C@@H](Cc1c[nH]cn1)C(=O)N[C@@H](CCC(N)=O)C(=O)N[C@@H](CC(=O)O)C(=O)N[C@@H](CC(C)C)C(=O)N[C@H](C(N)=O)CSC3 [Ac-(06-34-18) Phe2 Aze3Tyr4 NMeArg5] (Ac-CSF[Aze]Y[NMeR]CLHQDLC-NH2; linker 1-7-13 via TBMB)
Ki (rat plasma Kallikrein [2]): 31.4 nM

CC(=O)N[C@H]1CSCc2cc3cc(c2)CSC[C@H](NC(=O)[C@H](CCCNC(=N)N)NC(=O)[C@H](Cc2ccc(O)cc2)NC(=O)[C@@H]2CCCN2C(=O)[C@H](Cc2ccccc2)NC(=O)[C@H](CO)NC1=O)C(=O)N[C@@H](C1CCCCC1)C(=O)N[C@@H](Cc1c[nH]cn1)C(=O)N[C@@H](CCC(N)=O)C(=O)N[C@@H](CC(=O)O)C(=O)N[C@@H](CC(C)C)C(=O)N[C@H](C(N)=O)CSC3 [Ac-(06-34-18) Phe2 Tyr4 Chg6] (Ac-CSFPYRC[Chg]HQDLC-NH2; linker 1-7-13 via TBMB)
Ki (human plasma Kallikrein; [6]): 0.5 nM | Ki (rat plasma Kallikrein [1]; [7]): 9.09 nM

CC(=O)N[C@H]1CSCc2cc3cc(c2)CSC[C@H](NC(=O)[C@H](CCCNC(=N)N)NC(=O)[C@H](Cc2ccc(O)cc2)NC(=O)[C@@H]2CCCN2C(=O)[C@H](Cc2ccccc2)NC(=O)[C@H](CO)NC1=O)C(=O)N(C)[C@@H](CC(C)C)C(=O)N[C@@H](Cc1c[nH]cn1)C(=O)N[C@@H](CCC(N)=O)C(=O)N[C@@H](CC(=O)O)C(=O)N[C@@H](CC(C)C)C(=O)N[C@H](C(N)=O)CSC3 [Ac-(06-34-18) Phe2 Tyr4 NMe-Leu6] (Ac-CSFPYRC[NMeL]HQDLC-NH2; linker 1-7-13 via TBMB)
F (Kivar/KiWT) (human plasma Kallikrein): 137 | pKi (human plasma Kallikrein): 7.24 | Fragments (human plasma) [3]: -R, -FPYR

CC(=O)N[C@H]1CSCc2cc3cc(c2)CSC[C@H](NC(=O)[C@H](CCCNC(=N)N)NC(=O)[C@H](Cc2ccc(O)cc2)NC(=O)[C@@H]2CCCN2C(=O)[C@H](Cc2ccccc2)NC(=O)[C@H](CO)NC1=O)C(=O)N[C@@H](CC(C)C)C(=O)N[C@@H](Cc1c[nH]cn1)C(=O)N[C@@H](CCC(N)=O)C(=O)N[C@@H](CC(=O)O)C(=O)N(C)[C@@H](CC(C)C)C(=O)N[C@H](C(N)=O)CSC3 [Ac-(06-34-18) Phe2 Tyr4 NMe-Leu10] (Ac-CSFPYRCLHQD[NMeL]C-NH2; linker 1-7-13 via TBMB)
F (Kivar/KiWT) (human plasma Kallikrein): 1396 | pKi (human plasma Kallikrein): 6.23 | Fragments (human plasma) [3]: -R, -FPYR

CC(=O)N[C@H]1CSCc2cc3cc(c2)CSC[C@H](NC(=O)[C@H](CCCNC(=N)N)NC(=O)[C@H](Cc2ccc(O)cc2)NC(=O)[C@@H]2CCCN2C(=O)[C@H](Cc2ccccc2)NC(=O)[C@H](CO)NC1=O)C(=O)N[C@@H](c1ccccc1)C(=O)N[C@@H](Cc1c[nH]cn1)C(=O)N[C@@H](CCC(N)=O)C(=O)N[C@@H](CC(=O)O)C(=O)N[C@@H](CC(C)C)C(=O)N[C@H](C(N)=O)CSC3 [Ac-(06-34-18) Phe2 Tyr4 Phg6] (Ac-CSFPYRC[Phg]HQDLC-NH2; linker 1-7-13 via TBMB)
Ki (human plasma Kallikrein; [6]): 0.3 nM | Ki (rat plasma Kallikrein [1]; [7]): 7.23 nM
